Source: the METLIN SMRT retention time set (Domingo-Almenara et al. 2019)

Assay: gradient 5% acetonitrile 3 min, to 50% in 2 min, to 85% in 15 min, held 3 min, 100 µL/min
Conditions: column: Zorbax Extend-C18 2.1 x 50 mm; eluents: water / acetonitrile, 0.1% formic acid
Method in brief: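 Each retention time is based on an adduct peak selected computationally and verified by manual inspection. Measurements used HPLC–quadrupole time-of-flight mass spectrometry in positive and negative ionization mode on mixtures of ~100 pure standards. Chromatography ran on a Zorbax Extend-C18 column (2.1 × 50 mm, 1.8 μm) at 100 μL/min with water and acetonitrile, each containing 0.1% formic acid, and dead and dwell volumes of 40 μL and 900 μL.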

Row | SMILES | RP-LC retention time
1 | CS(=O)(=O)Nc1ccc(C2(C(=O)NCc3ccc(F)cc3)CCCCC2)cc1 | 897 s
2 | COc1ccc(C2C(C(=O)Nc3cccc(C)n3)c3ccccc3C(=O)N2C)cc1 (stereo unspecified) | 791 s
3 | CC(O)(CNS(=O)(=O)c1cccnc1)c1ccco1 (stereo unspecified) | 604 s
4 | CCC(C)OC(=O)C1=C(C)NC(=O)NC1c1ccc(OC)c(O)c1 (stereo unspecified) | 693 s
5 | Cc1ccsc1CN1CCc2nc(N3CCN(c4ccccc4F)CC3)ncc2C1 | 780 s
6 | CN=C(NC#N)Nc1ccc(C2=NNC(=O)CC2C)cc1 (stereo unspecified) | 672 s
7 | CCOC(=O)Cc1csc(NC(=O)c2ccc(-c3nc4ccccc4s3)s2)n1 | 1010 s
8 | CC(C)CC(=O)Nc1ccc(-n2cnc(C(=O)N3CCc4ccccc4C3)c2)nc1 | 817 s
9 | O=C(Nc1ccc(F)c(F)c1)C1CCN(C(=O)c2ncn3c2COC(c2ccccc2)C3)CC1 (stereo unspecified) | 819 s
10 | CNc1nc(Nc2cc(F)ccc2F)nc2ccccc12 | 675 s
11 | COc1cc(NC(=O)CN2CCN(Cc3ccccc3)C(=O)C2=O)cc(OC)c1OC | 669 s
12 | COCCn1cc(C(=O)NCc2c(F)cccc2F)c2nn(-c3ccccc3)c(=O)c-2c1 | 809 s
13 | CCOC(=O)c1c(NCCc2cccs2)c2cccc(Cl)c2[nH]c1=O | 844 s
14 | Clc1ccc(-c2ccc(CNC3CC3)o2)c(Cl)c1 | 716 s
15 | Cc1cccc(-n2ncc(C(N)=O)c2-n2cccc2)c1 | 775 s
16 | Cc1cc(NC(C)C)n2nc(-c3ccc(Cl)cc3)c(C)c2n1 | 761 s
17 | Cc1cc(C(=O)NCc2ccc(C)o2)c2c(C)nn(-c3ccccc3)c2n1 | 964 s
18 | CN(C)c1ncccc1C(=O)Nc1ccccc1Cl | 716 s
19 | CCNC(=O)c1nnn(-c2cc(C(F)(F)F)ccc2Cl)c1-c1cccnc1 | 796 s
20 | CCS(=O)(=O)N1N=C(c2cccs2)CC1c1ccc2nccnc2c1 (stereo unspecified) | 724 s
21 | Cc1nn(-c2ccc(F)cc2)c(C)c1S(=O)(=O)N1CCC(C(=O)Nc2ccccc2F)CC1 | 949 s
22 | Cc1nnc(-c2ccc(S(=O)(=O)N3CCOCC3)o2)o1 | 664 s

Row | SMILES | RP-LC retention time
23 | Cc1ccccc1CNC(=O)C1c2ccccc2CC(=O)N1C (stereo unspecified) | 755 s
24 | CCOc1ccc(-c2cn3ccn(-c4cccc(Cl)c4)c(=O)c3n2)cc1 | 899 s
25 | O=C(OCCN1CCOCC1)C1(c2ccccc2)CCCCC1 | 755 s
26 | CCNS(=O)(=O)c1cccnc1Nc1cccc(F)c1 | 963 s
27 | COc1ccc(OC)c(S(=O)(=O)N2CC(=O)N(C3CCCC3)C3(CCCCC3)C2)c1 | 1090 s
28 | CCOC(=O)c1c(C)c(CCC(=O)NCc2ccc(C)o2)n(C)c1C | 842 s
29 | CCCC(=O)Nc1ccc2c(c1)CN(C(=O)c1ccc(F)c(F)c1)C(C(=O)N(C)C)C2 (stereo unspecified) | 736 s
30 | CCOC(=O)c1ccc(NS(=O)(=O)c2cc3n(c2)CCN(C)C3=O)cc1 | 702 s
31 | N#Cc1ccccc1-c1cc(-c2ccccn2)cn(-c2ccccc2)c1=O | 941 s
32 | O=C(NCc1cccc(C(F)(F)F)c1)c1cn2nc(Cl)ccc2n1 | 908 s
33 | Cc1nn(C(C)C(=O)NCCCN2CCc3ccccc3C2)c(=O)c2nn(-c3ccccc3)c(C)c12 (stereo unspecified) | 667 s
34 | CN(CCc1noc(-c2ccccc2)n1)C(=O)CSc1ccccc1 | 959 s
35 | O=C(c1ccccc1C(F)(F)F)N1CCc2nc(-c3ccc(F)cc3)ncc2C1 | 1020 s
36 | CCN1CCN(c2nc3c(c(Nc4ccccc4)n2)C(=O)CCC3)CC1 | 1040 s
37 | CC(C)CCNC(=O)Cn1nc(S(=O)(=O)c2cccc(F)c2)ccc1=O | 757 s
38 | COC(=O)c1cccc(N2C=C(C#N)S(=O)(=O)c3c(F)cccc32)c1 | 847 s
39 | CCOC(=O)O[C@]1(C(=O)OCCl)CCC2[C@@H]3CCC4=CC(=O)C=C[C@]4(C)C3[C@@H](O)C[C@@]21C (stereo partly specified) | 1110 s
40 | Nc1nc(Nc2ccccc2F)nc2cccc(F)c12 | 615 s
41 | Cc1ccc(NC(=O)CCC(=O)O)c(C)c1 | 627 s
42 | Cc1ccn2cc(-c3ccc(NS(=O)(=O)c4ccc(Cl)cc4)cc3)nc2n1 | 679 s
43 | CCCCNc1nc(NCC)nc(-n2cnc(SC)n2)n1 | 880 s
44 | O=C(Cc1ccc(Cl)cc1)Nc1nnc(SCc2nnc(-c3ccccc3)o2)s1 | 955 s

Further lines, results first:

Row | RP-LC retention time | SMILES
45 | 967 s | COc1cccc(CC(=O)N2CCc3cc(-c4csc(C)n4)ccc32)c1
46 | 560 s | O=C(NCCn1ncccc1=O)C1CCN(c2ccc(-c3ccc(F)cc3)nn2)CC1
47 | 852 s | COC(=O)c1ccc(Cn2cnc3nc4c(cc3c2=O)CC(C)CC4)cc1 (stereo unspecified)
48 | 566 s | O=C(NCCCN1CCc2ccccc2C1)c1c(OCC2CC2)cc(=O)n2c1CCCCC2
49 | 1130 s | CCOC(=O)c1noc2nc(C)nc(Nc3ccc(OCC)cc3)c12
50 | 640 s | CCc1cc2c(N3CCCC(C(=O)N(C)C)C3)nccc2s1 (stereo unspecified)
51 | 626 s | O=C(c1cn[nH]c1)N1CCC(c2nc(CCOCC3CC3)no2)C1 (stereo unspecified)
52 | 894 s | CCCn1c(=O)c(-c2ccc(C(=O)NC(C)C)cc2)nc2cccnc21
53 | 683 s | COc1cccc(CCC(=O)Nc2ccc3ncnc(N4CCCC4)c3c2)c1
54 | 586 s | CN(C)c1ccc(CNC(=O)Cn2cnc3nc4c(cc3c2=O)CCCC4)cc1
55 | 649 s | O=C(NCc1ccnc(N2CCSCC2)c1)Nc1ccc(Cl)cc1
56 | 670 s | COCCNC(=O)c1nc(-c2ccnc(N3CCC(C)CC3)c2)no1
57 | 777 s | CC(C)c1nnc(-c2cccnc2N2CCN(C(=O)c3ccc4cc[nH]c4c3)CC2)o1
58 | 658 s | COCCn1nc2n(c1=O)CCC1(CC2)CCN(C(=O)C2CC=CC2)CC1
59 | 896 s | CCOc1ccc(NS(=O)(=O)c2cc3c(s2)CCN(C(=O)C2CCC2)C3)cc1
60 | 560 s | COC(=O)c1cc2c(=O)n(CCN3CCOCC3)ccc2nc1C
61 | 1020 s | COc1ccc(-c2nnc(-c3ccccc3)o2)cc1S(=O)(=O)N1CCCCC1
62 | 734 s | O=S(=O)(c1cccnc1)N1CCC(c2nnc(-c3ccc(F)cc3)o2)CC1
63 | 748 s | Cc1ccc(CN2CCN(C3CCN(C(=O)Nc4ccc(F)cc4F)CC3)C(=O)C2=O)cc1
64 | 617 s | O=C(c1ccc2c(=O)n(-c3ccccc3)c(N3CCCC3)nc2c1)N1CCN(c2ccccn2)CC1
65 | 800 s | O=C(Cn1c(=O)c2cccn2c2ccc(F)cc21)NC1CCCC1
66 | 938 s | CCn1nc(CNC(=O)c2cc(C)cc(C)c2)c2ccccc21
67 | 713 s | COCCC(=O)N1CC(F)(F)C[C@H]1c1nc(C2CC2)no1
68 | 1110 s | Cc1ccc(NC(=O)N2CCCC2c2nc(-c3ccc(F)cc3F)no2)c(Cl)c1 (stereo unspecified)

Row | RP-LC retention time | SMILES
69 | 716 s | CCOC(=O)C(=O)NCc1nc(COc2ccc(OC)cc2)no1
70 | 606 s | Cc1ccc(CNC(=O)C2(C)Cn3nc(C(=O)NCCN4CCCCC4)cc3C(=O)N2C)cc1 (stereo unspecified)
71 | 821 s | Cc1ccc(-n2c(N3CCC(C(=O)NCC(C)C)CC3)nc3ccsc3c2=O)cc1
72 | 1020 s | COc1ccccc1N1CCN(S(=O)(=O)c2cc(-c3nnc(C4CCC4)o3)co2)CC1
73 | 1110 s | Cc1ccccc1Oc1nccnc1N1CCC(C(=O)NCCC2=CCCCC2)CC1
74 | 802 s | CC1=C(c2ccc(F)cc2)S(=O)(=O)N=C1N1CCC(C(=O)NCCc2ccco2)CC1
75 | 496 s | Cc1nnc2cc(N3CCN(C(=O)c4cccc(N(C)C)c4)CC3)cnn12
76 | 736 s | CN(C)c1cccc(C(=O)Nc2ccc(-c3nnc4n3CCCC4)cc2)c1
77 | 763 s | CCc1nnc(-c2ccc3ccn(CC(=O)Nc4ccc(OC)cc4)c3c2)o1
78 | 806 s | COCCN1C(=O)CCc2cc(NC(=O)Cc3ccc(Cl)cc3)ccc21
79 | 894 s | CCn1ccc2sc(C)c(C(=O)NC3CCCCCC3)c2c1=O
80 | 621 s | Cc1ccc(C)c(S(=O)(=O)Nc2cnc(N3CCNCC3)c(C(=O)NC3CCCC3)c2)c1
81 | 570 s | COc1ccc(CCC(=O)NCCCN2CCOC(c3ccccc3)C2)cc1 (stereo unspecified)
82 | 829 s | Cc1ccc(-c2cn3c(CC(=O)NC4CCCCC4)csc3n2)cc1C
83 | 669 s | CC(C)S(=O)(=O)c1ccc(CC(=O)N2CCC(c3nnc(-c4ccco4)o3)CC2)cc1
84 | 572 s | COCCC1CCN(C(=O)c2ccc3nc[nH]c3c2)CC1
85 | 701 s | Cc1cccc(CNC(=O)C2CCCN(c3cc(=O)n(C)c(=O)n3C)C2)c1 (stereo unspecified)
86 | 726 s | CCOC(=O)N1CCC2(CC1)N=C(c1ccc(OCC)cc1)CC(c1cc(Cl)ccc1O)N2 (stereo unspecified)
87 | 635 s | CC(=O)N1CCC(NC(=O)Nc2cccc(C)c2)C1 (stereo unspecified)
88 | 1020 s | COc1ccc(N2CC(c3nc(-c4oc5ccc(OC)cc5c4C)no3)CC2=O)cc1 (stereo unspecified)
89 | 848 s | COc1ccccc1N1CCN(Cc2nc(-c3ccc(N4CCCC(C)C4)nc3)no2)CC1 (stereo unspecified)
90 | 655 s | CCOc1ccccc1NC(=O)Cn1nc2n(c1=O)CCCC2
91 | 623 s | CC(=O)OCCNc1nc(-c2ccccc2)nc2ccccc12
